Data taken from ChEMBL document CHEMBL5380778, “Structure-Directed Discovery of Potent Soluble Epoxide Hydrolase Inhibitors for the Treatment of Inflammatory Diseases” (J Med Chem, 2023).

Legend:
[1] = biological target: T1, Bifunctional epoxide hydrolase 2 (Homo sapiens, UniProt P34913); experiment: Inhibition of recombinant human soluble epoxide hydrolase using PHOME as substrate assessed as 6-methoxynaphthaldehyde product formation preincubated with compound for 10 mins followed by substrate addition and measured by fluorescence based analysis
T1 sequence (P34913 whole entry): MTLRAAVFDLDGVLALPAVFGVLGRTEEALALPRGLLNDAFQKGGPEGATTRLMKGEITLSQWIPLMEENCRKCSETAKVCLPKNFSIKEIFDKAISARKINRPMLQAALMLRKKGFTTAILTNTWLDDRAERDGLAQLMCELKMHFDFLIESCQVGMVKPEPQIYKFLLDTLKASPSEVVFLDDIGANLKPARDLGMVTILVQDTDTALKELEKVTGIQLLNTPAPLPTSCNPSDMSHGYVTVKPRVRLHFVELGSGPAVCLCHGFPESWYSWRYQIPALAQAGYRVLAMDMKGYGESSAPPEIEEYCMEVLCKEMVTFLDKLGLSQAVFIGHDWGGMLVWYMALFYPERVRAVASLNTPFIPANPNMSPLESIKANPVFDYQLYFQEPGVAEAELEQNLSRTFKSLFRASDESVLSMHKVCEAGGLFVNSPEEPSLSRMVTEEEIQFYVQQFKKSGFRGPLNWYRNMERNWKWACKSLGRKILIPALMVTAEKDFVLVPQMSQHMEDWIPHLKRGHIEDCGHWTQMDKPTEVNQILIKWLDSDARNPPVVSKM

[2] = biological target: T2, Bifunctional epoxide hydrolase 2 (Mus musculus, UniProt P34914); experiment: Inhibition of recombinant mouse soluble epoxide hydrolase using PHOME as substrate assessed as 6-methoxynaphthaldehyde product formation preincubated with compound for 10 mins followed by substrate addition and measured by fluorescence based analysis
T2 sequence (P34914 whole entry): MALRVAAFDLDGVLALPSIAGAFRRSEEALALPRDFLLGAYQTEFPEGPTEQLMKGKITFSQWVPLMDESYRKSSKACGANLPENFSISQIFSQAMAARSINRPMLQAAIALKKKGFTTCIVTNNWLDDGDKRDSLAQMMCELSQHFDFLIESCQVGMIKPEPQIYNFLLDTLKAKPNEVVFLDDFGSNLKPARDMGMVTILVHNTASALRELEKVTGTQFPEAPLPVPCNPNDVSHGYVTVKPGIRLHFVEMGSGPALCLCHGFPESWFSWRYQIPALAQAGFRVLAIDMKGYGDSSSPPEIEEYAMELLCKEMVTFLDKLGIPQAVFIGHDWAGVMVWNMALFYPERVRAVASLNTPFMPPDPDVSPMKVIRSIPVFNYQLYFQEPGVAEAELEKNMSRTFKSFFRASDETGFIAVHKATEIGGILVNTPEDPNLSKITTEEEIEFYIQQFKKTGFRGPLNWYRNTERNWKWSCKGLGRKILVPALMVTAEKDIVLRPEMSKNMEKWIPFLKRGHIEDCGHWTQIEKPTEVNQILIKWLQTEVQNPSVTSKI

[3] = AUC (0 to 8 hrs) in Sprague-Dawley rat at 50 mg/kg, po administered as single dose and measured upto 8 hrs by HPLC analysis; assay type: ADME, organism-based; design: dose 50 mg/kg, time < 8 hrs, route po; settings: in vivo
[4] = Protein binding in Sprague-Dawley rat plasma by equilibrium dialysis; assay type: ADME, cell-free
[5] = Tmax in Sprague-Dawley rat at 10 mg/kg, iv administered as single dose and measured upto 8 hrs by HPLC analysis; assay type: ADME, organism-based; settings: in vivo
Mus musculus [6] = experiment: (§1) Anti-inflammatory activity in L-arginine-induced acute pancreatitis kunming mouse model assessed as reversal of L-arginine induced pancreatic injury by measuring total score at 8 mg/kg, ip pre-treated with L-arginine for 14 hrs followed by compound treatment and measured after 10 hrs by histologic scoring analysis (reference value: 6.25 +/- 0.96); assay type: functional
[7] = Metabolic stability in human liver microsomes assessed as half-life measured upto 60 mins in the presence of NADPH generating system by HPLC analysis; assay type: ADME, Microsome; settings: 1 h
[8] = Clearance in Sprague-Dawley rat at 50 mg/kg, po administered as single dose and measured upto 8 hrs by HPLC analysis; assay type: ADME, organism-based; settings: in vivo
Mus musculus [9] = experiment: as §1, with “3” for “8”; assay type: functional
[10] = Half-life in Sprague-Dawley rat at 50 mg/kg, po administered as single dose and measured upto 8 hrs by HPLC analysis; assay type: ADME, organism-based; settings: in vivo
[11] = Toxicity in mouse assessed as effect on body weight at 200 mg/kg, po administered for 7 days; assay type: organism-based; settings: in vivo, 168 h, time 7 day
[12] = Microsomal stability in Sprague-Dawley rat liver microsomes assessed as mean compound concentration measured after 60 mins in the presence of NADPH-generating system by HPLC analysis (Rvb= 100 ug/ml); assay type: ADME, Microsome; settings: 1 h
[13] = Microsomal stability in human liver microsomes assessed as mean compound concentration measured after 60 mins in the presence of NADPH-generating system by HPLC analysis (Rvb= 100 ug/ml); assay type: ADME, Microsome; settings: 1 h
[14] = Half-life in Sprague-Dawley rat at 10 mg/kg, iv administered as single dose and measured upto 8 hrs by HPLC analysis; assay type: ADME, organism-based; settings: in vivo
[15] = Oral bioavailability in Sprague-Dawley rat at 50 mg/kg administered as single dose and measured upto 8 hrs by HPLC analysis; assay type: ADME, organism-based; settings: in vivo
[16] = Apparent volume of distribution in Sprague-Dawley rat at 50 mg/kg, po administered as single dose and measured upto 8 hrs by HPLC analysis; assay type: ADME, organism-based; settings: in vivo
[17] = Microsomal stability in Sprague-Dawley rat liver microsomes assessed as mean compound concentration measured after 30 mins in the presence of NADPH-generating system by HPLC analysis (Rvb= 100 ug/ml); assay type: ADME, Microsome; settings: 0.5 h
[18] = Metabolic stability in Sprague-Dawley rat liver microsomes assessed as half-life measured upto 60 mins in the presence of NADPH generating system by HPLC analysis; assay type: ADME, Microsome; settings: 1 h
[19] = Microsomal stability in Sprague-Dawley rat liver microsomes assessed as mean compound concentration measured after 10 mins in the presence of NADPH-generating system by HPLC analysis (Rvb= 100 ug/ml); assay type: ADME, Microsome
[20] = Microsomal stability in human liver microsomes assessed as mean compound concentration measured after 10 mins in the presence of NADPH-generating system by HPLC analysis (Rvb= 100 ug/ml); assay type: ADME, Microsome
[21] = Toxicity in mouse assessed as tolerance by measuring adverse events at 200 mg/kg, po administered for 7 days; assay type: organism-based; settings: in vivo, 168 h, time 7 day
[22] = Cmax in Sprague-Dawley rat at 50 mg/kg, po administered as single dose and measured upto 8 hrs by HPLC analysis; assay type: ADME, organism-based; design: time < 8 hrs, dose 50 mg/kg, route po; settings: in vivo
[23] = Microsomal stability in human liver microsomes assessed as mean compound concentration measured after 30 mins in the presence of NADPH-generating system by HPLC analysis (Rvb= 100 ug/ml); assay type: ADME, Microsome; settings: 0.5 h
[24] = AUC (0 to 8 hrs) in Sprague-Dawley rat at 10 mg/kg, iv administered as single dose and measured upto 8 hrs by HPLC analysis; assay type: ADME, organism-based; design: time < 8 hrs, dose 10 mg/kg, route iv; settings: in vivo
[25] = Clearance in Sprague-Dawley rat at 10 mg/kg, iv administered as single dose and measured upto 8 hrs by HPLC analysis; assay type: ADME, organism-based; settings: in vivo
[26] = AUC (0 to infinity) in Sprague-Dawley rat at 10 mg/kg, iv administered as single dose and measured upto 8 hrs by HPLC analysis; assay type: ADME, organism-based; design: dose 10 mg/kg, time < 8 hrs, route iv; settings: in vivo
[27] = Tmax in Sprague-Dawley rat at 50 mg/kg, po administered as single dose and measured upto 8 hrs by HPLC analysis; assay type: ADME, organism-based; settings: in vivo
[28] = Toxicity in LPS-induced C57BL/6 sepsis mouse model assessed as survival rate at 5 mg/kg, ip administered at 4 and 12 hrs post LPS-induction and measured after 35 hrs relative to control; assay type: organism-based; settings: in vivo
[29] = Apparent volume of distribution in Sprague-Dawley rat at 10 mg/kg, iv administered as single dose and measured upto 8 hrs by HPLC analysis; assay type: ADME, organism-based; settings: in vivo
[30] = Cmax in Sprague-Dawley rat at 10 mg/kg, iv administered as single dose and measured upto 8 hrs by HPLC analysis; assay type: ADME, organism-based; design: time < 8 hrs, dose 10 mg/kg, route iv; settings: in vivo
[31] = Toxicity in LPS-induced C57BL/6 sepsis mouse model assessed as survival rate at 5 mg/kg, ip administered at 4 and 12 hrs post LPS-induction and measured after 28 hrs relative to control; assay type: organism-based; settings: in vivo
[32] = AUC (0 to infinity) in Sprague-Dawley rat at 50 mg/kg, po administered as single dose and measured upto 8 hrs by HPLC analysis; assay type: ADME, organism-based; design: time < 8 hrs, dose 50 mg/kg, route po; settings: in vivo

For C[C@]12C[C@@H]3C[C@](C)(C1)C[C@@](NC(=O)Nc1ccc(CN4CCCN(C(=O)CC5CCN(CCO)CC5)CC4)cc1F)(C3)C2, the IC50 [1] was 4.69 nM and the IC50 [2] was 0.61 nM.
Compound CCN(CC)CCN1CCC(CC(=O)N2CCCN(Cc3ccc(NC(=O)N[C@@]45C[C@@H]6C[C@@](C)(C[C@@](C)(C6)C4)C5)c(F)c3)CC2)CC1 has an IC50 [1] of 2.1 nM and an IC50 [2] of 1.37 nM.
In the case of COC(=O)N1CCC(CC(=O)N2CCCN(Cc3ccc(NC(=O)N[C@@]45C[C@@H]6C[C@@](C)(C[C@@](C)(C6)C4)C5)c(F)c3)CC2)CC1, the IC50 [1] is reported as 1.1 nM and the IC50 [2] is reported as 0.41 nM.
CN(C)CCN1CCC(CC(=O)N2CCCN(Cc3ccc(NC(=O)N[C@@]45C[C@@H]6C[C@@](C)(C[C@@](C)(C6)C4)C5)c(F)c3)CC2)CC1 showed an IC50 [1] of 2.59 nM and an IC50 [2] of 0.67 nM.
In the case of CCC(=O)N1CCCN(C(=O)C2CCCN(Cc3ccc(NC(=O)N[C@@]45C[C@@H]6C[C@@](C)(C[C@@](C)(C6)C4)C5)c(F)c3)C2)CC1 (some centres not stated), the AUC [3] is reported as 6.39 nM·h, the PPB [4] is reported as 72.57% and the Tmax [5] is reported as 1.8 min. For the same compound, the Activity (Mus musculus [6]) was 3.5, the t1/2 [7] was 3.7 h and the CL [8] was 28.3 mL/min/kg. For the same compound, the Activity (Mus musculus [9]) was 4.25, the t1/2 [10] was 5.55 h and the Activity [11] was “Non-Toxic”. For the same compound, the Stability [12] was 62.01 µg/mL, the Stability [13] was 68.78 µg/mL and the t1/2 [14] was 5.72 h. The F [15] was 20.85%, the Vz [16] was 13.12 L/kg and the Stability [17] was 66.63 µg/mL. It also gave a t1/2 [18] of 3.15 h, a Stability [19] of 75.04 µg/mL and a Stability [20] of 81.12 µg/mL. For the same compound, the Activity [21] was “Non-Toxic”, the Cmax [22] was 2.92 nM and the Stability [23] was 74.76 µg/mL. For the same compound, the AUC [24] was 6.13 nM·h, the CL [25] was 4.83 mL/min/kg and the AUC [26] was 11.47 nM·h. It also gave an IC50 [1] of 0.05 nM, an IC50 [2] of 0.14 nM and a Tmax [27] of 0.25 h. It also gave an Activity [28] of 12.5%, a Vz [29] of 2.39 L/kg and a Cmax [30] of 3.77 nM. For the same compound, the Activity [31] was 37.5% and the AUC [32] was 10.15 nM·h.
C[C@]12C[C@@H]3C[C@](C)(C1)C[C@@](NC(=O)Nc1ccc(CN4CCCN(C(=O)CC5CCN(CC(O)CO)CC5)CC4)cc1F)(C3)C2 (some centres not stated) gave an IC50 [1] of 58.1 nM and an IC50 [2] of 1.25 nM.
